Measured values: patent US10966426B2, “Herbicidal compositions comprising phenylpyrimidines” (BASF SE, priority 2016, dated 2021)

Columns and labels:
Assay type in all cases: in vivo
[1] = tested on: Brachiaria decumbens; experiment: greenhouse post-emergence treatment, BRADC; settings: Urochloa decumbens, sc, 504 h, BRADC, 21 DAT
Experimental: (§1) The culture containers used were plastic pots containing loamy sand with approximately 3.0% of humus as substrate. The seeds of the test plants were sown separately for each species.
(§2) For the post-emergence treatment, the test plants were grown to a plant height of from 3 to 15 cm, depending on the plant habit, and only then treated with the active compounds which had been suspended or emulsified in water. To this end, the test plants were either sown directly, and grown in the same containers, or they were first grown separately as seedlings and transplanted into the test containers a few days prior to treatment.
(§3) Depending on the species, the plants were kept at 10-25° C. and 20-35° C., respectively.
(§4) The test period extended over 2 to 4 weeks. During this time, the plants were tended and their response to the individual treatments was evaluated.
(§5) Evaluation was carried out using a scale from 0 to 100. 100 means no emergence of the plants, or complete destruction of at least the above-ground parts, and 0 means no damage or normal course of growth. A good herbicidal activity is given at values of at least 70, and very good herbicidal activity is given at values of at least 85.
(§6) The respective stated components A and B, and if appropriate, C were formulated as a 10% by weight strength emulsion concentrate and, with addition of the amount of solvent system, introduced into the spray liquor used for applying the active compound. In the examples, the solvent used was water.
(§7) In the examples below, using the method of S. R. Colby (1967) “Calculating synergistic and antagonistic responses of herbicide combinations”, Weeds 15, p. 22ff., the value E, which is expected if the activity of the individual active compounds is only additive, was calculated. E=X+Y−(X·Y/100) where X=effect in percent using herbicide A at an application rate a; • Y=effect in percent using herbicide B at application rate b; • E=expected effect (in %) of herbicide A+herbicide B at application rates a+b.

[2] = tested on: Setaria viridis; experiment: greenhouse post-emergence treatment, SETVI; settings: Setaria viridis, sc, SETVI
Experimental: as §1
(§8) To this end, the test plants were either sown directly, and grown in the same containers, or they were first grown separately as seedlings and transplanted into the test containers a few days prior to treatment.
as §3, §4, §5
(§9) In the examples, the solvent used was water.
(§10) In the examples below, using the method of S. R. Colby (1967) “Calculating synergistic and antagonistic responses of herbicide combinations”, Weeds 15, p. […] E=X+Y−(X·Y/100) where X=effect in percent using herbicide A at an application rate a; • Y=effect in percent using herbicide B at application rate b; • E=expected effect (in %) of herbicide A+herbicide B at application rates a+b.

[3] = tested on: Polygonum convolvulus; experiment: greenhouse post-emergence treatment, POLCO; settings: Fallopia convolvulus, sc, POLCO; for inhibition at 500000 µg/mL (stock): 504 h, 21 DAT
Experimental: as §1, §2, §3, §4, §5, §6, §7

[4] = tested on: Poa annua; experiment: greenhouse post-emergence treatment, POAAN; settings: Poa annua, 504 h, POAAN, 21 DAT, solo metazachlor (SC 500 g/l) 250 gai/ha
Experimental: as §1, §2, §3, §4, §5, §6, §7

[5] = tested on: Stellaria media; experiment: greenhouse post-emergence treatment, STEME; settings: Stellaria media, sc, STEME; for inhibition at 500000 µg/mL (stock): 504 h, 21 DAT
Experimental: as §1, §2, §3, §4, §5, §6, §7

[6] = tested on: Galium aparine; experiment: greenhouse post-emergence treatment, GALAP; settings: Galium aparine, 504 h, GALAP, 21 DAT, solo metazachlor (SC 500 g/l) 250 gai/ha
Experimental: as §1, §2, §3, §4, §5, §6, §7

[7] = tested on: Matricaria chamomilla; experiment: greenhouse post-emergence treatment, MATCH; settings: Matricaria chamomilla, sc, MATCH; for inhibition at 500000 µg/mL (stock): 504 h, 21 DAT
Experimental: as §1, §2, §3, §4, §5, §6, §7

[8] = tested on: Avena fatua; experiment: greenhouse post-emergence treatment, AVEFA; settings: Avena fatua, sc, AVEFA; for inhibition at 500000 µg/mL (stock): 504 h, 21 DAT
Experimental: as §1, §8, §3, §4, §5, §9, §10

[9] = tested on: Digitaria sanguinalis; experiment: greenhouse post-emergence treatment, DIGSA; settings: Digitaria sanguinalis, sc, DIGSA; for inhibition at 500000 µg/mL (stock): 504 h, 21 DAT
Experimental: as §1, §8, §3, §4, §5, §9, §10

[10] = tested on: Lolium multiflorum; experiment: greenhouse post-emergence treatment, LOLMU; settings: Lolium multiflorum, sc, LOLMU; for inhibition at 500000 µg/mL (stock): 504 h, 21 DAT
Experimental: as §1, §8, §3, §4, §5, §9, §10

[11] = tested on: Polygonum aviculare; experiment: greenhouse post-emergence treatment, POLAV; settings: POLAV, 21 DAT
Experimental: as §1, §2, §3, §4, §5, §6, §7

[12] = tested on: Alopecurus myosuroides; experiment: greenhouse post-emergence treatment, ALOMY; settings: Alopecurus myosuroides, 480 h, 20 DAT, ALOMY, pendimethalin SC 400 g/l solo 125 gai/ha
Experimental: as §1, §8, §3, §4, §5, §9, §10

[13] = tested on: Ambrosia elatior; experiment: greenhouse pre-emergence treatment, AMBEL; settings: Ambrosia artemisiifolia, 504 h, 21 DAT, AMBEL
Excerpt: as §1
(§11) For the pre-emergence treatment, the active compounds, suspended or emulsified in water, were applied directly after sowing by means of finely distributing nozzles. The containers were irrigated gently to promote germination and growth and subsequently covered with transparent plastic hoods until the plants had rooted. This cover caused uniform germination of the test plants unless this was adversely affected by the active compounds.
as §3, §4, §5, §6, §7

[14] = tested on: Bromus sterilis; experiment: greenhouse pre-emergence treatment, BROST; settings: Bromus sterilis, 504 h, 21 DAT, BROST
Excerpt: as §1, §11, §3, §4, §5, §6, §7

[15] = tested on: Avena fatua; experiment: greenhouse pre-emergence treatment, AVEFA; settings: Avena fatua, 504 h, 21 DAT, AVEFA, pendimethalin SC 400 g/l solo 125 gai/ha
Excerpt: as §1, §11, §3, §4, §5, §6, §7

[16] = tested on: Helianthus annuus; experiment: greenhouse pre-emergence treatment, HELAN; settings: Helianthus annuus, 504 h, 21 DAT, HELAN
Excerpt: as §1, §11, §3, §4, §5, §6, §7

[17] = tested on: Apera spica-venti; experiment: greenhouse post-emergence treatment, APESV; settings: solo, SC 400 g/l, APESV, 250 gai/ha, 20 DAT
Experimental: as §1, §2, §3, §4, §5, §6, §7

[18] = tested on: Bromus sterilis; experiment: greenhouse post-emergence treatment, BROST; settings: Bromus sterilis, sc, 480 h, 20 DAT, BROST
Experimental: as §1, §8, §3, §4, §5, §9, §10

[19] = tested on: Brachiaria decumbens; experiment: greenhouse pre-emergence treatment, BRADC; settings: Urochloa decumbens, 504 h, 21 DAT, BRADC
Excerpt: as §1, §11, §3, §4, §5, §6, §7

[20] = solo metazachlor (SC 500 g/l) 31.25 gai/ha
[21] = solo metazachlor (SC 500 g/l) 62.5 gai/ha
[22] = solo metazachlor (SC 500 g/l) 125 gai/ha
[23] = solo metazachlor (SC 500 g/l) 250 gai/ha
[24] = 480 h, 20 DAT, pendimethalin SC 400 g/l solo 250 gai/ha, read-out: % activity
[25] = pendimethalin SC 400 g/l solo 250 gai/ha
[26] = pendimethalin SC 400 g/l solo 1000 gai/ha
[27] = pendimethalin SC 400 g/l solo 500 gai/ha
[28] = 480 h, 20 DAT, pendimethalin SC 400 g/l solo 500 gai/ha
[29] = 480 h, 20 DAT, pendimethalin SC 400 g/l solo 1000 gai/ha
[30] = 480 h, 20 DAT, pendimethalin SC 400 g/l solo 125 gai/ha, read-out: % activity

Cc1cccc(C)c1N(Cn1cccn1)C(=O)CCl [metazachlor]
inhibition at 500000 µg/mL (stock) [1, 20]: 10%
inhibition at 500000 µg/mL (stock) [1, 21]: 20%
inhibition at 500000 µg/mL (stock) [1, 22]: 25%
inhibition at 500000 µg/mL (stock) [1, 23]: 60%
inhibition at 500000 µg/mL (stock) ([2]; 504 h, 21 DAT, solo metazachlor (SC 500 g/l) 31.25 gai/ha): 65%
inhibition at 500000 µg/mL (stock) [3, 20]: 0%
inhibition at 500000 µg/mL (stock) [3, 21]: 0%
inhibition at 500000 µg/mL (stock) [3, 22]: 10%
inhibition at 500000 µg/mL (stock) [3, 23]: 20%
inhibition at 500000 µg/mL (stock) [4]: 85%
inhibition at 500000 µg/mL (stock) [5, 20]: 0%
inhibition at 500000 µg/mL (stock) [5, 21]: 0%
inhibition at 500000 µg/mL (stock) [5, 22]: 25%
inhibition at 500000 µg/mL (stock) [5, 23]: 35%
inhibition at 500000 µg/mL (stock) [6]: 85%
inhibition at 500000 µg/mL (stock) [7, 20]: 0%
inhibition at 500000 µg/mL (stock) [7, 21]: 0%
inhibition at 500000 µg/mL (stock) [7, 23]: 20%
inhibition at 500000 µg/mL (stock) [8, 21]: 10%
inhibition at 500000 µg/mL (stock) [8, 22]: 0%
inhibition at 500000 µg/mL (stock) [8, 23]: 10%
inhibition at 500000 µg/mL (stock) [9, 20]: 0%
inhibition at 500000 µg/mL (stock) [9, 23]: 75%
inhibition at 500000 µg/mL (stock) [10, 20]: 30%
inhibition at 500000 µg/mL (stock) [10, 22]: 85%
inhibition at 500000 µg/mL (stock) [10, 23]: 85%
inhibition at 500000 µg/mL (stock) ([11]; Polygonum aviculare, 504 h, solo metazachlor (SC 500 g/l) 125 gai/ha): 25%
% activity ([11]; metazachlor solo (SC 500 g/l), 31.25 gai/ha): 20%

CCC(CC)Nc1c([N+](=O)[O-])cc(C)c(C)c1[N+](=O)[O-] [pendimethalin]
inhibition at 125 g/ha [12]: 20%
inhibition at 250 g/ha [2, 24]: 50%
percent weed control (herbicidal activity, 0-100 scale) at 250 g/ha [13, 25]: 0%
percent weed control (herbicidal activity, 0-100 scale) at 1000 g/ha [13, 26]: 0%
inhibition at 250 g/ha ([14]; pendimethalin SC 400 g/l solo 250 gai/ha, read-out: % activity): 0%
inhibition at 500 g/ha [14, 27]: 0%
inhibition at 1000 g/ha [14, 26]: 10%
inhibition at 125 g/ha ([3]; 480 h, 20 DAT, pendimethalin SC 400 g/l solo 125 gai/ha): 40%
inhibition at 500 g/ha [3, 28]: 60%
inhibition at 125 g/ha [15]: 0%
inhibition at 500 g/ha [5, 28]: 70%
inhibition at 100 g/ha ([16]; pendimethalin SC 400 g/l solo 100 gai/ha): 10%
inhibition at 125 g/ha ([16]; pendimethalin SC 400 g/l solo 125 gai/ha, read-out: % activity): 0%
inhibition at 250 g/ha [16, 25]: 0%
inhibition at 500 g/ha [16, 27]: 10%
inhibition at 500 g/ha [7, 28]: 0%
inhibition at 1000 g/ha [7, 29]: 0%
% activity [17]: 0%
inhibition at 125 g/ha [8, 30]: 0%
inhibition at 250 g/ha ([8]; 480 h, 20 DAT, pendimethalin SC 400 g/l solo 250 gai/ha): 0%
inhibition at 500 g/ha [8, 28]: 0%
inhibition at 1000 g/ha [8, 29]: 0%
inhibition at 125 g/ha ([18]; pendimethalin SC 400 g/l solo 125 gai/ha): 0%
inhibition at 250 g/ha [18, 25]: 0%
inhibition at 500 g/ha [18, 27]: 0%
inhibition at 1000 g/ha [18, 26]: 0%
inhibition at 125 g/ha [9, 30]: 45%
% herbicidal activity (weed control, 0-100 scale) at 250 g/ha [19, 25]: 0%
% herbicidal activity (weed control, 0-100 scale) at 500 g/ha [19, 27]: 0%
% herbicidal activity (weed control, 0-100 scale) at 1000 g/ha [19, 26]: 0%
inhibition at 125 g/ha [10, 30]: 10%
inhibition at 250 g/ha [10, 24]: 20%
